Our source for the IC50 values is patent publication US20090170906A1, “HCV INHIBITORS” (priority 2004, published 2009).

In general, IC50 refers to the midpoint of a concentration-inhibition curve. Lower therefore signals higher potency.

This assay deals with HCV genotype 1b strain Con1 replicon (ET replicon line, Huh7 cells). The assay can be described thus: ET replicon luciferase assay (HCV activity). The format is cell-based. The conditions noted are these: Hepatitis C virus, Huh-7, Huh7 cells with HCV genotype 1b Con1 luciferase replicon, 72 hours incubation. Here is the method: Compounds of the current invention are believed useful in the treatment and/or prophylaxis of conditions and diseases associated with HcV infection. Activity mediated through HCV was determined using an ET replicon line.
The Materials used include a Medium comprised of DMEM (1× liquid, high glucose); Invitrogen cat# 11965-092; 100× Penicillin/Streptomycin solution (10,000 Units/mL); Invitrogen cat# 15140-122; 100× Non-essential amino acid solution (10 mM); Invitrogen cat# 11140-050; Fetal bovine serum; JRH Biosciences cat# 12107-500M; Geneticin (50 mg/mL); Invitrogen cat# 10131-035
The Luciferase assay reagents include Steady-Glo Luciferase assay system, cat# E2550 (Promega)
The ET replicon line (see Lohmann et al. (1999), Replication of subgenomic hepatitis C virus RNAs in a hepatoma cell line. Science 285: 110-113; Krieger et al. (2001), Enhancement of hepatitis C virus RNA replication by cell culture-adaptive mutations. J. Virol. 75: 46144624; and Vrolijk et al. (2003), A replicon-based bioassay for the measurement of interferons in patients with chronic hepatitis C. J. Virol. Meth. 110: 201-209, each herein incorporated by reference with regard to the ET replicon line), includes Huh7 cells stably transfected with HCV genotype 1b strain Con1 replicon. This replicon expresses the firefly luciferase, has the coding region for ubiquitin inserted upstream of the neomycin gene, and carries three cell culture-adaptive mutations that enhance RNA replication cooperatively (E1202G, T1280I, and S2197P). The ET cell line was obtained under licence from: R^eBLikon GmbH, Nach dem alten Schloss 22, 55239 Gau-Odemheim, Germany.
Cells are maintained at 37° C., 5% CO2, in DMEM with 10% FCS, 1× penicillin/streptomycin, 1× non-essential amino acids, 0.5 mg/mL Geneticin. For passage, cells are washed once with PBS, and incubated at 37° C. with sufficient trypsin (0.05%)/versene to cover the monolayer. Once detached from the flask, cells are mixed with several mLs of DMEM+10% FBS to inactivate the trypsin, then diluted appropriately (usually 1 in 5 or 1 in 10) with sufficient medium to pass to a new flask. For a T225 flask, 40-50 mLs total volume of cells+medium is typically used. To prevent the density dependent drop in replicon RNA, the ET cell line is maintained at sub-confluent (60-80%) levels.
Compounds are diluted in DMSO across the first 10 wells of a Costar V-bottom 96-well plate using a Biomek 2000 Workstation (Beckman-Coulter), with 0.5 log10 dilution intervals. DMSO only is added to the last two columns of the plate. The top concentration of drug in this master plate is typically 2.5 mM. A 1/5 dilution of the compounds is made by adding DMEM+10% FBS with a multichannel pipettor, giving a top concentration of 500 μM. 5 μL of diluted compounds is transferred into black Costar flat bottom 96-well daughter plates using a RapidPlate workstation (Zymark).
Cells are grown to approximately 80% confluency and trypsinised as described above. Cells are counted in a Levy Hemocytometer and diluted to 20,000 cells/ml in DMEM containing 10% FBS, 1× penicillin/streptomycin, 1×NEAAs. (Note: Geneticin is omitted for the assay).
245 μL cell suspension is added to the first 11 columns of the daughter plates prepared as above using a Multidrop dispenser (Titertek). Thus, 5,000 cells are added per well, and the final top concentration of each compound is 10 μM. The twelfth column of each plate is used to generate background readings for the assay. Plates are incubated at 37° C., 5% CO2 for 72 hours.
Steady-Glo reagent is prepared according to the manufacturer's instructions, by mixing the Steady-Glo Buffer and Steady-Glo substrate Buffer at room temperature. Medium is removed from the 96-well plates containing ET cells treated with compound using a multi-channel aspirator. 100 μl of Steady-Glo reagent is added to each well using a multichannel pipettor or Multidrop dispensor. […]

Structures are written as SMILES. Bounds are passed on as bounds.

The compound `O=C(NC1CCCc2c1[nH]c1ccc(Br)cc21)c1ccccc1F` (stereo not drawn) [Example 29, N-(6-Bromo-2,3,4,9-tetrahydro-1H-carbazol-1-yl)-2-fluorobenzamide] gave an IC50 of 6 nM.

With `O=C(NC1CCCc2c1[nH]c1ccc(Br)cc21)c1ccccc1` (stereo not drawn) [Example 14A, N-(6-Bromo-2,3,4,9-tetrahydro-1H-carbazol-1-yl)benzamide], half-maximal inhibition (IC50) was put at 17 nM.

As for `O=C(NC1CCCc2c1[nH]c1ccc(Br)cc21)c1ccccn1` (stereo not drawn) [Example 38, N-(6-Bromo-2,3,4,9-tetrahydro-1H-carbazol-1-yl)pyridine-2-carboxamide], the IC50 came to 7 nM.

As for `O=C(N[C@@H]1CCCc2c1[nH]c1ccc(Cl)cc21)c1ccccc1F` [Example 46B, N-[(1R)-6-chloro-2,3,4,9-tetrahydro-1H-carbazol-1-yl]-2-fluorobenzamide], the concentration for half-maximal inhibition (IC50) is 16 nM.

`O=C(N[C@@H]1CCCc2c1[nH]c1ccc(Cl)cc21)c1ccccc1` [Example 36B, N-[(1R)-6-chloro-2,3,4,9-tetrahydro-1H-carbazol-1-yl]benzamide]: the IC50 is < 30 nM.

On to `O=C(N[C@@H]1CCCc2c1[nH]c1ccc(Cl)cc21)c1ccccn1` [Example 45B, N-[(1R)-6-chloro-2,3,4,9-tetrahydro-1H-carbazol-1-yl]pyridine-2-carboxamide], for which the concentration for half-maximal inhibition (IC50) was 6 nM.
